{
  "source": "patent US20140341922A1",
  "about": "“Method for Overcoming Tolerance to Targeted Anti-Cancer Agent” (SUN R&DB Foundation, priority 2011, published 2014)",
  "key": {"[1]": {"test_system": "LN686, FADU, and OSC19 cells", "test": "Cell counting in 3D-mimic 2D culture (PCP or UAP)", "assay_type": "cell-based, human", "method": "Cells were cultured in 96-well poly(poly-2-hydroxyethyl methacrylate [HEMA])-coated plates (PCPs) or ultra-low attached plates (UAPs). Control IgG1 (25 μg/ml), cixutumumab (25 μg/ml), PP2 (10 μM), and an integrin β3 neutralizing antibody B3A (10 μg/ml) were diluted in culture media containing 10% FBS or IGF-1 and treated alone or in combination. To examine the effect on cancer cell proliferation, a 3-(4,5-dimethylthiazol-2-yl)-2,5-diphenyltetrazolium bromide (MTT) or 3-(4,5-dimethylthiazol-2-yl)-5-(3-carboxymethoxyphenyl)-2-(4-sulfophenyl)-2H-tetrazolium (MTS) assay was performed, and to evaluate the effect on anchorage-independent colony formation, a soft agar colony formation assay was performed according to a method in our previous report (Morgillo et al., 2006).\nThe PCPs were prepared according to a previously reported method (Fukazawa et al., 1995). In brief, tissue culture plates were collated twice with poly-(HEMA) (10 mg/ml in 95% ethanol) at 37° C. and then washed with phosphate-buffered saline (PBS) several times.\nSince cell growth rates could be different under each set of culture conditions, the present inventor counted the cells at distinct culture periods and depicted the results in FIG. 6. The values were represented as mean±standard deviation (SD), and a statistical significance was evaluated using two-sided Student t test (*P<0.05; **P<0.01)."}, "[2]": {"test_system": "LN686, H226B, UMSCC38 and A549m xenograft tumors", "test": "Xenograft tumors of drug-resistant and -sensitive cells in nude mice", "assay_type": "in vivo", "details": "intraperitoneal, 25 mg/kg twice a week", "method": "(§1) LN686, UMSCC38, H226B, or A549m cells (1×10^6 cells/mouse in 100 μl of PBS) were subcutaneously injected into nude mice at a single dorsal flank site (6-9 mice per group). For HNSCC patient-derived tumor xenografts, primary human tumor specimens were collected from an untreated patient who underwent lobectomies of squamous carcinoma of the oral cavity. The tumors were cut into small pieces with a size of 2-mm^3 and subcutaneously implanted into the nude mice (one piece per mouse). At 0 day (the time point when tumor size reached to 80 to 100 mm^3) mice were treated with cixutumumab (10 mg/kg, i.p., once or twice a week), Ad-EV (3×10^11 pfu, intratumoral injection, once a week), Ad-CSK (3×10^11 pfu, intratumoral injection, once a week), siCon, siintegrin β3 ([…], i.p., once a week), dasatinib (20 mg/kg, oral gavage, daily), cixutumumab and Ad-CSK, or cixutumumab and dasatinib.\nTumor xenografts were treated with vehicle or cituxumumab (intraperitoneal, 25 mg/kg) twice a week. Data are presented as mean tumor volume ±SD for indicated time or mean tumor weight at the date of euthanasia ±SD (*P<0.05, **P<0.01, ***P<0.001). […] Thus, antitumor activity of cixutumumab was consistent in cells grown in 3D (or 3D-mimicking) conditions in vitro and in those grown in vivo."}, "[3]": {"test_system": "LN686 tumor xenografts", "test": "LN686 xenograft, cixutumumab and Ad-CSK", "assay_type": "in vivo, mouse", "details": "after 21 days", "method": "as §1\nTo further determine the effects of inhibiting integrin β3/Src signaling on antitumor activities of cixutumumab, an adenovirus expressing c-Src tyrosine kinase that phosphorylates the autoinhibitory tyrosine 527 was used (Yeatman, 2004). […]"}},
  "data": [
    {"substance": "cixutumumab: humanized mAb targeting IGF-1R, provided by ImClone Systems", "values": [
      {"measurement": "growth rates vs control cells", "setting": "[1]; LN686 and FADU cells", "result": "no difference"},
      {"measurement": "growth rates vs control cells", "setting": "[1]; OSC19 cells", "result": "significantly slower growth rates"},
      {"measurement": "growth and weight of xenograft tumors", "setting": "[2]; LN686 and H226B xenografts", "result": "no significant effects"},
      {"measurement": "growth and weight of xenograft tumors", "setting": "[2]; UMSCC38 and A549 xenografts", "result": "significantly decreased"},
      {"measurement": "mean tumor weight compared to a control group", "setting": "[3]", "result": 96, "unit": "%"}
    ]}
  ]
}
